Source: article PMC7206119, “RIP1 inhibition blocks inflammatory diseases but not tumor growth or metastases” (Cell Death and Differentiation, 2019)

How the values were obtained:
Assay in all cases: biochemical
Parameters in all cases: DiscoverX kinase panel, active-site competition binding (KINOMEscan type), percent of control at one concentration
Conditions in all cases: competition binding, percent of control
[1] = biological target: PAK4 (Homo sapiens, UniProt O96013)
[2] = biological target: T1, MEK5 (Homo sapiens, UniProt Q13163)
T1 construct: gene MAP2K5

[3] = biological target: T2, MEK4 (Homo sapiens, UniProt P45985)
T2 construct: gene MAP2K4

[4] = biological target: LYN (Homo sapiens, UniProt P07948)
Sequence of LYN (P07948 whole entry): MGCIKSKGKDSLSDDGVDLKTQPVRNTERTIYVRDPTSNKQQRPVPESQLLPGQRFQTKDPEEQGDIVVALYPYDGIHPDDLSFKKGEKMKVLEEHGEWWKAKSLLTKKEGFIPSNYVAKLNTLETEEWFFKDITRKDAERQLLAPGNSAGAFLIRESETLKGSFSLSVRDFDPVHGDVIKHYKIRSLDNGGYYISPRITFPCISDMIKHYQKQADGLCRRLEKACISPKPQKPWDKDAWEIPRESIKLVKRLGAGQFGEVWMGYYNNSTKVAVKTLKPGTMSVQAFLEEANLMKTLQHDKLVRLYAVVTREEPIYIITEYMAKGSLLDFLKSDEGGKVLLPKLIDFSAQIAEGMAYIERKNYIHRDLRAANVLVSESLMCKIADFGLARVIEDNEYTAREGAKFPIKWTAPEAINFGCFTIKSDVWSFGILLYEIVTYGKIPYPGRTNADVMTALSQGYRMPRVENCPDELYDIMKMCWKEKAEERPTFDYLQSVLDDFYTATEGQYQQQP

[5] = biological target: FLT3(D835H) (Homo sapiens, UniProt P36888, D835H)
[6] = biological target: BRSK2 (Homo sapiens, UniProt Q8IWQ3)
Sequence of BRSK2 (Q8IWQ3 whole entry): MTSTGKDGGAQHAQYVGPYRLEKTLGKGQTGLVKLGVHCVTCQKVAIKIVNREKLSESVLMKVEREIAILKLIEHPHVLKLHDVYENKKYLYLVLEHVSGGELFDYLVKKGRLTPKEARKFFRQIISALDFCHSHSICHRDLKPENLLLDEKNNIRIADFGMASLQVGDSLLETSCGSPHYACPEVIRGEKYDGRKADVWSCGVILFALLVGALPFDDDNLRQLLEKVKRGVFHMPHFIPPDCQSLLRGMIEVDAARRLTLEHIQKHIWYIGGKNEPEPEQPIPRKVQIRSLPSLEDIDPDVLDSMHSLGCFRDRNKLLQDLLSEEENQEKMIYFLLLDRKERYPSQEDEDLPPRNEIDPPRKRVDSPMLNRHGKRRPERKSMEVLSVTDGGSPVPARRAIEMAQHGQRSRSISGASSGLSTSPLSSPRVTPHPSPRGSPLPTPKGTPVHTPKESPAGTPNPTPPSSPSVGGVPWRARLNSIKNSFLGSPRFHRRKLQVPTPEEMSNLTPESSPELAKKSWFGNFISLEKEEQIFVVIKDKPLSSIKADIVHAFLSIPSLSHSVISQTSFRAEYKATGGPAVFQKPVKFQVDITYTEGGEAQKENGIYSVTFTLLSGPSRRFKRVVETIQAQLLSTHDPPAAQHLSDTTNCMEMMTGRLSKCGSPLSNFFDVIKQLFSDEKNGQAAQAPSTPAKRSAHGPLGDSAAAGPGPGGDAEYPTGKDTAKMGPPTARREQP

[7] = biological target: SGK3 (Homo sapiens, UniProt Q96BR1)
Sequence of SGK3 (Q96BR1 whole entry): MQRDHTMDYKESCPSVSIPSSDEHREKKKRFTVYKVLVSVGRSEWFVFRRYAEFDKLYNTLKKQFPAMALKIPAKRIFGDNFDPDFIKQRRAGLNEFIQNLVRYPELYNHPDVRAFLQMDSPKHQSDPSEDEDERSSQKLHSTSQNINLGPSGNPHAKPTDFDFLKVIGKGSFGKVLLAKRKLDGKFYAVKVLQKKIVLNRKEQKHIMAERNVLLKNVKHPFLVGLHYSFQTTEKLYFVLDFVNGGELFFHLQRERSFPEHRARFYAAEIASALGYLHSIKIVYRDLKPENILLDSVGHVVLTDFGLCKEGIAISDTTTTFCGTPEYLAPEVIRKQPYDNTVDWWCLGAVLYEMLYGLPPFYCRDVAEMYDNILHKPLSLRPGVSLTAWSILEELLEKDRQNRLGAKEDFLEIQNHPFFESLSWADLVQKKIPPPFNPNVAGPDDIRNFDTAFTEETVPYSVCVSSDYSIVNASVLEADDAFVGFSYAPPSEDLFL

[8] = biological target: T3, ABL1(Q252H)-nonphosphorylated (Homo sapiens, UniProt P00519, Q252H)
T3 construct: nonphosphorylated

[9] = biological target: BTK (Homo sapiens, UniProt Q06187)
[10] = biological target: TLK2 (Homo sapiens, UniProt Q86UE8)
[11] = biological target: BMPR1B (Homo sapiens, UniProt O00238)
[12] = biological target: EPHB4 (Homo sapiens, UniProt P54760)
Sequence of EPHB4 (P54760 whole entry): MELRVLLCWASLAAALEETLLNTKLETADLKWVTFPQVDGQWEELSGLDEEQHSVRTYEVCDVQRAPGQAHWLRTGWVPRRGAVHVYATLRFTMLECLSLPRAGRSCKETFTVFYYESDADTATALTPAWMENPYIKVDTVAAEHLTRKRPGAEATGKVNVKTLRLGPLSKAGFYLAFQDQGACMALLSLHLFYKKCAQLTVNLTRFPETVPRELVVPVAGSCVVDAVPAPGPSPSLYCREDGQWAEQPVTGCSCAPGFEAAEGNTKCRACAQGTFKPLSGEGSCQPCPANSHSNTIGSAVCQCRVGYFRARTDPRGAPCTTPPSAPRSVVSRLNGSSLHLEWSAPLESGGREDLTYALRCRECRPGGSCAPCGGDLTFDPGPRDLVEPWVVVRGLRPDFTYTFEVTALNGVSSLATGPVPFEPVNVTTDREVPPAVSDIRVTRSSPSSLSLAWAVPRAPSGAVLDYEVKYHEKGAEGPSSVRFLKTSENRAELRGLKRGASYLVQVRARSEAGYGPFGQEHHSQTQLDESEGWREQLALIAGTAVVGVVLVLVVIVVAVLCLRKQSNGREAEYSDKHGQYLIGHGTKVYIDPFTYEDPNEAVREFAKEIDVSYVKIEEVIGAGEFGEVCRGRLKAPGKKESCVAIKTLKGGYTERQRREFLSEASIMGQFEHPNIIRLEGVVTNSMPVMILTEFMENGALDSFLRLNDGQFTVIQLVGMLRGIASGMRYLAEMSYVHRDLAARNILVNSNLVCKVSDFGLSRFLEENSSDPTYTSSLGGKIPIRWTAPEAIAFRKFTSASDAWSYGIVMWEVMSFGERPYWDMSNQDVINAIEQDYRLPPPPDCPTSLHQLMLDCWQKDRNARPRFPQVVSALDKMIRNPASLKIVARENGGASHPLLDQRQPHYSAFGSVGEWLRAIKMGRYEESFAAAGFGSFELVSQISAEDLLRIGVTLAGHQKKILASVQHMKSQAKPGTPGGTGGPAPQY

[13] = biological target: T4, DMPK2 (Homo sapiens, UniProt Q6DT37)
T4 construct: gene CDC42BPG

[14] = biological target: PIP5K1C (Homo sapiens, UniProt O60331)
[15] = biological target: T5, ERK3 (Homo sapiens, UniProt Q16659)
T5 construct: gene MAPK6

[16] = biological target: STK39 (Homo sapiens, UniProt Q9UEW8)
[17] = biological target: CSF1R (Homo sapiens, UniProt P07333)
[18] = biological target: FRK (Homo sapiens, UniProt P42685)
[19] = biological target: MARK4 (Homo sapiens, UniProt Q96L34)
[20] = biological target: ERN1 (Homo sapiens, UniProt O75460)
Sequence of ERN1 (O75460 whole entry): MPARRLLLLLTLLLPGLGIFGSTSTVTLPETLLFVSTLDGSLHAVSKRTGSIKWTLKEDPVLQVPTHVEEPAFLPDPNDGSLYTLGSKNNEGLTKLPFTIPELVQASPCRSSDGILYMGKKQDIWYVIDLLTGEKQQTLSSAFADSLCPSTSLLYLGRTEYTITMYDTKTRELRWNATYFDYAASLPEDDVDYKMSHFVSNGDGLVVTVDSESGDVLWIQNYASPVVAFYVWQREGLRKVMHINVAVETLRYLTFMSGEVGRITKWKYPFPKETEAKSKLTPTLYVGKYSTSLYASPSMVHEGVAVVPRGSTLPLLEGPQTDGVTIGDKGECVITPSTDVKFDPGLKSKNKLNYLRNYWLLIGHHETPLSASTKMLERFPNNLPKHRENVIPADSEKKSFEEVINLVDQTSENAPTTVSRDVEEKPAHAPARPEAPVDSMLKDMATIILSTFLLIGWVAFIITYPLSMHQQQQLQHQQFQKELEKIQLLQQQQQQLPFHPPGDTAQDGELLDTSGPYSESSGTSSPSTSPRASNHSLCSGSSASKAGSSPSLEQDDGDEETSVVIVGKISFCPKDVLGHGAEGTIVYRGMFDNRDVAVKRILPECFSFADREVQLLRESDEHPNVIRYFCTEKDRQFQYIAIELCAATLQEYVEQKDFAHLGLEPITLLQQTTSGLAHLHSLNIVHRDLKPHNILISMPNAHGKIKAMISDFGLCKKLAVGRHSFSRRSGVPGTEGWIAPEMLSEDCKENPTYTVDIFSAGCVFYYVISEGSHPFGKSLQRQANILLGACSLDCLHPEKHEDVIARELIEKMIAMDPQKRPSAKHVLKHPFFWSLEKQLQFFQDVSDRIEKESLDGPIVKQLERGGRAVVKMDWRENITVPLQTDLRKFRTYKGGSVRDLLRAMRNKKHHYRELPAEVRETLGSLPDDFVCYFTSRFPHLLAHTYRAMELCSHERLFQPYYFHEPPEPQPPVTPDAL

[21] = biological target: LATS2 (Homo sapiens, UniProt Q9NRM7)
Sequence of LATS2 (Q9NRM7 whole entry): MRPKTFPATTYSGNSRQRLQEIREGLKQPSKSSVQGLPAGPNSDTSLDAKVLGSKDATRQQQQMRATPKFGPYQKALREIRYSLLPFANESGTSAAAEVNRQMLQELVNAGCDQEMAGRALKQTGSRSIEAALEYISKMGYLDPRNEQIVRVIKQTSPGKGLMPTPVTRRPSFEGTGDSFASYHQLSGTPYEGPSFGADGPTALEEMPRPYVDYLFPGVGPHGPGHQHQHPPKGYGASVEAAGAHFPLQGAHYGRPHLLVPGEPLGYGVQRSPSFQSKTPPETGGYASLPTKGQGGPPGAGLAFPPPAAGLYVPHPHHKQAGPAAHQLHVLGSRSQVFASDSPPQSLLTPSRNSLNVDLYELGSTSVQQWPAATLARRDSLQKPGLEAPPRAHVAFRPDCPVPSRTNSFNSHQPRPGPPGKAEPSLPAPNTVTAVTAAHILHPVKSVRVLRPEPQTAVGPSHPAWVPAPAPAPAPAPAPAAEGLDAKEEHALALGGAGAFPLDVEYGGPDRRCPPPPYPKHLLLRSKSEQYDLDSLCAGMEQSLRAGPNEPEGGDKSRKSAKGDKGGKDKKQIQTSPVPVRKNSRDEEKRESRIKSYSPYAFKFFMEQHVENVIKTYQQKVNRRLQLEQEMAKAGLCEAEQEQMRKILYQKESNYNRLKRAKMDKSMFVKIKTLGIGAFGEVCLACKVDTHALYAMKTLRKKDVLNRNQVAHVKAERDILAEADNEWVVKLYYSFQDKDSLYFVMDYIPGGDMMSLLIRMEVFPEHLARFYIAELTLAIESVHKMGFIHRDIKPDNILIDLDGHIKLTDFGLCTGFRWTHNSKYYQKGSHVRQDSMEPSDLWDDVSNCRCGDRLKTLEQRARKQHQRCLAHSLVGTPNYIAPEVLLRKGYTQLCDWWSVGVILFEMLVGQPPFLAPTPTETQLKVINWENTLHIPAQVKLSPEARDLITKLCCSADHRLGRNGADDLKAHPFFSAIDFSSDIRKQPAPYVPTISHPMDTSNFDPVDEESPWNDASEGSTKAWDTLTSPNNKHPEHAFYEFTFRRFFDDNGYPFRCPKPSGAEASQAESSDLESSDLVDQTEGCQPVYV

[22] = biological target: RIOK1 (Homo sapiens, UniProt Q9BRS2)

**Q.** How did the remaining binding at 10 µM [1] turn out when `COc1cc2c(cn1)N(C)C(=O)[C@@H](NC(=O)c1nc3n(n1)[C@H](c1ccccc1)CC3)CC2` [GNE684, (S)-N-((S)-7-methoxy-1-methyl-2-oxo-2,3,4,5-tetrahydro-1H-pyrido[3,4-b]azepin-3-yl)-5-phenyl-6,7-dihydro-5H-pyrrolo[1,2-b][1,2,4]triazole-2-carboxamide] was run?
**A.** 93%

**Q.** And the remaining binding at 10 µM [2]?
**A.** 80%

**Q.** What about the remaining binding at 10 µM [3] of the same molecule?
**A.** 88%

**Q.** What about the remaining binding at 10 µM [4] of the same molecule?
**A.** 94%

**Q.** And the remaining binding at 10 µM [5]?
**A.** 94%

**Q.** What about the remaining binding at 10 µM [6] of the same molecule?
**A.** 89%

**Q.** And the remaining binding at 10 µM [7]?
**A.** 93%

**Q.** What about the remaining binding at 10 µM [8] of the same molecule?
**A.** 68%

**Q.** What about the remaining binding at 10 µM [9] of the same molecule?
**A.** 100%

**Q.** And the remaining binding at 10 µM [10]?
**A.** 100%

**Q.** What about the remaining binding at 10 µM [11] of the same molecule?
**A.** 100%

**Q.** What about the remaining binding at 10 µM [12] of the same molecule?
**A.** 100%

**Q.** What about the remaining binding at 10 µM [13] of the same molecule?
**A.** 100%

**Q.** What about the remaining binding at 10 µM [14] of the same molecule?
**A.** 100%

**Q.** What about the remaining binding at 10 µM [15] of the same molecule?
**A.** 100%

**Q.** And the remaining binding at 10 µM [16]?
**A.** 97%

**Q.** What about the remaining binding at 10 µM [17] of the same molecule?
**A.** 100%

**Q.** And the remaining binding at 10 µM [18]?
**A.** 100%

**Q.** What about the remaining binding at 10 µM [19] of the same molecule?
**A.** 60%

**Q.** What about the remaining binding at 10 µM [20] of the same molecule?
**A.** 97%

**Q.** And the remaining binding at 10 µM [21]?
**A.** 84%

**Q.** What about the remaining binding at 10 µM [22] of the same molecule?
**A.** 84%
